The nature of this test: Determination of LMP7 Activity: Measurement of LMP7 inhibition is performed in 384 well format based on fluorescence intensity assay.Purified human immuno proteasome (0.25 nM) and serial diluted compounds in DMSO (range of concentrations from 30 μM to 15 pM) or controls are incubated for 20 minutes or 120 minutes (long incubation) at 25° C. in assay buffer containing 50 mM Tris pH 7.4, 0.03% SDS, 1 mM EDTA and 1% DMSO. The reaction is initiated by the addition of the fluorogenic peptide substrate, Suc-LLVY-AMC (Bachem 1-1395), at a concentration of 40 μM. After 60 minutes of incubation at 37° C., fluorescence intensity is measured at λex=350 nm and λem=450 nm with a fluorescence reader (Perkin Elmer Envision reader or equivalent).

SMILES strings stand for the structures.

For the compound `CC#CC(=O)N(CCC)CC(=O)N[C@@H](Cc1ccc(C)cc1C)B(O)O`, the IC50 was under 0.05 µM.
The value for `C=CS(=O)(=O)N(C)CC(=O)N[C@@H](Cc1ccc(C)c(C)c1)B(O)O` was “in the range around 0.275 µM”.

The values are drawn from ChEMBL document CHEMBL5727755, “Boronic acid derivatives” (2020).
